Measured values as given in US8735384B2, “Amino heteroaryl compounds as beta-secretase modulators and methods of use” (Amgen Inc., priority 2010, dated 2014).

Legend:
[1] = test system: Aβ40 in conditioned medium of cells stably expressing Amyloid Precursor Protein (APP); assay: In vitro BACE cell-based assay (HEK cell assay), Aβ40 sandwich ELISA; conditions: Homo sapiens, HEK293, 24 h, inhibition of Aβ40, 24 h incubation, read-out: HEK cell assay (IC50 class)
Protocol: In Vitro BACE Cell-Based Assay:
The cell-based assay measures inhibition or reduction of Aβ40 in conditioned medium of test compound treated cells expressing amyloid precursor protein.
Cells stably expressing Amyloid Precursor Protein (APP) were plated at a density of 40K cells/well in 96 well plates (Costar). The cells were cultivated for 24 hours at 37° C. and 5% CO2 in DMEM supplemented with 10% FBS. The test compounds were then added to cells in 10-point dose response concentrations with the starting concentration being either 100 μM or 10 μM. The compounds were diluted from stock solutions in DMSO and the final DMSO concentration of the test compounds on cells was 0.1%. After 24 h of incubation with the test compounds the supernatant conditioned media was collected and the Aβ 40 levels were determined using a sandwich ELISA. The IC50 of the compound was calculated from the percent of control or percent inhibition of Aβ 40 as a function of the concentration of the test compound.
The sandwich ELISA to detect Aβ 40 was performed in 96 well microtiter plates, which were pre-treated with goat anti-rabbit IgG (Pierce). The capture and detecting antibody pair that were used to detect Aβ 40 from cell supernatants were affinity purified pAb40 (Biosource) and biotinylated 6E10 (Signet Labs Inc.), respectively. The optimal concentration for the pAb40 antibody was 3 μg/ml in Superblock/TBS (Pierce) that was supplemented with 0.05% Tween 20 (Sigma). Optimal concentration for the detection antibody 6E10-biotinylated was 0.5 μg/ml in Superblock/TBS (Pierce) that had been supplemented with 2% normal goat serum and 2% normal mouse serum.
Cellular supernatants were incubated with the capture antibody for 3 h at 4° C., followed by 3 wash steps in TBS-tween (0.05%). The detecting antibody incubation was for 2 h at 4° C., again followed by the wash steps as described previously. The final readout of the ELISA is Time-Resolved Fluorescence (counts per minute) using Delfia reagents Streptavidin-Europium and Enhancement solutions (Perkin Elmer) and the Victor 2 multilabel counter (Perkin Elmer).

BACE1 = BACE1 (Homo sapiens, UniProt P56817); assay: In vitro enzymatic BACE FRET assay; assay type: biochemical; conditions: beta secretase enzyme 0.2 nM, FRET substrate 50 nM, pH 4.2; read-out: BACE1 FRET assay (IC50 class)
Sequence of BACE1 (P56817 46-501, species assumed): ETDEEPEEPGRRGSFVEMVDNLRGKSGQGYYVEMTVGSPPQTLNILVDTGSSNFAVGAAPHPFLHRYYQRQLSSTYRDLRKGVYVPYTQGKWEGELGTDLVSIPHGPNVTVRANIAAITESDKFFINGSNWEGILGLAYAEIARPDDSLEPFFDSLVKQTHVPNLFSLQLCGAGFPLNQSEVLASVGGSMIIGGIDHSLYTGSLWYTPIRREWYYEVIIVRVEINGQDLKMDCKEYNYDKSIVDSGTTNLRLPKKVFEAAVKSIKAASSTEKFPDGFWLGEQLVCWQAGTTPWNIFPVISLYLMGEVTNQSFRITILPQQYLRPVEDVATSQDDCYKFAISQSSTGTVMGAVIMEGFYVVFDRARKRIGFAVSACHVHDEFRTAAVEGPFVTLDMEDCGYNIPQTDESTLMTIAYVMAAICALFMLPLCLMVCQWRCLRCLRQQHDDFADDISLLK
Protocol: In Vitro Enzymatic BACE FRET (Fluorescence Resonance Energy Transfer) Assay (Enzyme Assay Data in Table 1)
The assay buffer used in this screen is 0.05 M acetate, pH 4.2, 10% DMSO final, 100 uM genapol (which is a nonionic detergent, below its Critical Micelle Concentration). The beta secretase enzyme (0.2 nM) is pre-incubated for one hour with inhibitors, typically in about 1 uL of DMSO according to a serial dilution, are added thereto. The assay is effectively started by the addition of FRET substrate (50 nM) and the combination is incubated for one hour. The FRET assay is terminated with by addition of Tris buffer, which raises the pH to neutrality, and the fluorescence is determined. The FRET substrate is a peptide with commercially available fluorophore and quencher, on opposite sides of the BACE cleavage site. Proteolytic cleavage of the FRET substrate releases quenching of fluorescence (excitation […] and […]).
Of the compounds tested, the in-vitro BACE FRET enzyme data for each of Examples 1-220, where available at the time of filing this application, is provided in Table 1.

SMILES	IC50 [1]	IC50 (BACE1)
Cc1cccc(C(=O)N2CCCCC2)c1-c1ccc2nc(N)c(N3CCOCC3)cc2c1 [Example 58, (2-(2-amino-3-morpholinoquinolin-6-yl)-3-methylphenyl)(piperidin-1-yl)methanone]	501 to 1000 nM	< 100 nM
Cc1cccc(C(=O)N2CCOCC2)c1-c1ccc2nc(N)c(N3CCOCC3)cc2c1 [Example 59, (2-(2-amino-3-morpholinoquinolin-6-yl)-3-methylphenyl)(morpholino)methanone]	1010 to 5000 nM	100 to 500 nM
Cc1cccc(C(=O)N2CCCC2)c1-c1ccc2nc(N)c(N3CCCC3)cc2c1 [Example 60, (2-(2-amino-3-(pyrrolidin-1-yl)quinolin-6-yl)-3-methylphenyl)(pyrrolidin-1-yl)methanone]	1010 to 5000 nM	100 to 500 nM
Cc1cccc(C(=O)N2CCCC2)c1-c1ccc2nc(N)c(N3CCCCC3)cc2c1 [Example 61, (2-(2-amino-3-(piperidin-1-yl)quinolin-6-yl)-3-methylphenyl)(pyrrolidin-1-yl)methanone]	1010 to 5000 nM	501 to 1000 nM
CCOC(=O)c1cccc(C)c1-c1ccc2nc(N)c(N3CCOCC3)cc2c1 [Example 62, ethyl 2-(2-amino-3-morpholinoquinolin-6-yl)-3-methylbenzoate]	1010 to 5000 nM	100 to 500 nM
CCCC1CCCN1C(=O)c1cccc(C)c1-c1ccc2nc(N)c(N3CCOCC3)cc2c1 (stereo not drawn) [Example 63, (2-(2-amino-3-morpholinoquinolin-6-yl)-3-methylphenyl)(2-propylpyrrolidin-1-yl)methanone]	1010 to 5000 nM	100 to 500 nM
Cc1cccc(C(=O)N2CCCC2C(C)(C)C)c1-c1ccc2nc(N)c(N3CCOCC3)cc2c1 (stereo not drawn) [Example 64, (2-(2-amino-3-morpholinoquinolin-6-yl)-3-methylphenyl)(2-tert-butylpyrrolidin-1-yl)methanone]	501 to 1000 nM	< 100 nM
CCC1CCCN1C(=O)c1cccc(C)c1-c1ccc2nc(N)c(N3CCOCC3)cc2c1 (stereo not drawn) [Example 65, (2-(2-amino-3-morpholinoquinolin-6-yl)-3-methylphenyl)(2-ethylpyrrolidin-1-yl)methanone]	501 to 1000 nM	< 100 nM
Cc1cccc(C(=O)N2CCCC2C(C)C)c1-c1ccc2nc(N)c(N3CCOCC3)cc2c1 (stereo not drawn) [Example 66, (2-(2-amino-3-morpholinoquinolin-6-yl)-3-methylphenyl)(2-isopropylpyrrolidin-1-yl)methanone]	100 to 500 nM	< 100 nM
Cc1cccc(C(=O)N2CCCC2C)c1-c1ccc2nc(N)c(N3CCOCC3)cc2c1 (stereo not drawn) [Example 67, (2-(2-amino-3-morpholinoquinolin-6-yl)-3-methylphenyl)(2-methylpyrrolidin-1-yl)methanone]	100 to 500 nM	< 100 nM
Cc1cccc(C(=O)N2C[C@H]3CC[C@@H]2C3)c1-c1ccc2nc(N)c(N3CCOCC3)cc2c1 [Example 68, (2-(2-amino-3-morpholinoquinolin-6-yl)-3-methylphenyl)((1R,4S)-2-azabicyclo[2.2.1]heptan-2-yl)methanone]	100 to 500 nM	< 100 nM
Cc1cccc(C(=O)N2CC[C@@H](F)C2)c1-c1ccc2nc(N)c(N3CCOCC3)cc2c1 [Example 69, (R)-(2-(2-amino-3-morpholinoquinolin-6-yl)-3-methylphenyl)(3-fluoropyrrolidin-1-yl)methanone]	100 to 500 nM	< 100 nM
COC[C@H]1CCCN1C(=O)c1cccc(C)c1-c1ccc2nc(N)c(N3CCOCC3)cc2c1 [Example 70, (R)-(2-(2-amino-3-morpholinoquinolin-6-yl)-3-methylphenyl)(2-(methoxymethyl)pyrrolidin-1-yl)methanone]	1010 to 5000 nM	100 to 500 nM
COCCN(C)C(=O)c1cccc(C)c1-c1ccc2nc(N)c(N3CCOCC3)cc2c1 [Example 71, 2-(2-amino-3-morpholinoquinolin-6-yl)-N-(2-methoxyethyl)-N,3-dimethylbenzamide]	1010 to 5000 nM	100 to 500 nM
COC1CCN(C(=O)c2cccc(C)c2-c2ccc3nc(N)c(N4CCOCC4)cc3c2)CC1 [Example 72, (2-(2-amino-3-morpholinoquinolin-6-yl)-3-methylphenyl)(4-methoxypiperidin-1-yl)methanone]	1010 to 5000 nM	< 100 nM
COCC1CCN(C(=O)c2cccc(C)c2-c2ccc3nc(N)c(N4CCOCC4)cc3c2)CC1 [Example 73, (2-(2-amino-3-morpholinoquinolin-6-yl)-3-methylphenyl)(4-(methoxymethyl)piperidin-1-yl)methanone]	1010 to 5000 nM	100 to 500 nM
CCOCC1CCN(C(=O)c2cccc(C)c2-c2ccc3nc(N)c(N4CCOCC4)cc3c2)CC1 [Example 74, (2-(2-amino-3-morpholinoquinolin-6-yl)-3-methylphenyl)(4-(ethoxymethyl)piperidin-1-yl)methanone]	1010 to 5000 nM	< 100 nM
COCCC1CCN(C(=O)c2cccc(C)c2-c2ccc3nc(N)c(N4CCOCC4)cc3c2)CC1 [Example 75, (2-(2-amino-3-morpholinoquinolin-6-yl)-3-methylphenyl)(4-(2-methoxyethyl)piperidin-1-yl)methanone]	1010 to 5000 nM	100 to 500 nM

Further lines, results first:

IC50 [1]	IC50 (BACE1)	SMILES
1010 to 5000 nM	< 100 nM	CCOC1CCN(C(=O)c2cccc(C)c2-c2ccc3nc(N)c(N4CCOCC4)cc3c2)CC1 [Example 76, (2-(2-amino-3-morpholinoquinolin-6-yl)-3-methylphenyl)(4-ethoxypiperidin-1-yl)methanone]
1010 to 5000 nM	< 100 nM	Cc1cccc(C(=O)N2CCC[C@@H](C)C2)c1-c1ccc2nc(N)c(N3CCOCC3)cc2c1 [Example 77, (R)-(2-(2-amino-3-morpholinoquinolin-6-yl)-3-methylphenyl)(3-methylpiperidin-1-yl)methanone]
> 5000 nM	< 100 nM	CCCC1CCN(C(=O)c2cccc(C)c2-c2ccc3nc(N)c(N4CCOCC4)cc3c2)CC1 [Example 78, (2-(2-amino-3-morpholinoquinolin-6-yl)-3-methylphenyl)(4-propylpiperidin-1-yl)methanone]
1010 to 5000 nM	100 to 500 nM	CCCC1CCCCN1C(=O)c1cccc(C)c1-c1ccc2nc(N)c(N3CCOCC3)cc2c1 (stereo not drawn) [Example 79, (2-(2-amino-3-morpholinoquinolin-6-yl)-3-methylphenyl)(2-propylpiperidin-1-yl)methanone]
1010 to 5000 nM	< 100 nM	Cc1cccc(C(=O)N2CCC(C)CC2)c1-c1ccc2nc(N)c(N3CCOCC3)cc2c1 [Example 80, (2-(2-amino-3-morpholinoquinolin-6-yl)-3-methylphenyl)(4-methylpiperidin-1-yl)methanone]
1010 to 5000 nM	< 100 nM	CCC1CCCCN1C(=O)c1cccc(C)c1-c1ccc2nc(N)c(N3CCOCC3)cc2c1 (stereo not drawn) [Example 81, (2-(2-amino-3-morpholinoquinolin-6-yl)-3-methylphenyl)(2-ethylpiperidin-1-yl)methanone]
1010 to 5000 nM	100 to 500 nM	COC1CCCN(C(=O)c2cccc(C)c2-c2ccc3nc(N)c(N4CCOCC4)cc3c2)C1 (stereo not drawn) [Example 82, (2-(2-amino-3-morpholinoquinolin-6-yl)-3-methylphenyl)(3-methoxypiperidin-1-yl)methanone]
1010 to 5000 nM	100 to 500 nM	COCCC1CCCCN1C(=O)c1cccc(C)c1-c1ccc2nc(N)c(N3CCOCC3)cc2c1 (stereo not drawn) [Example 83, (2-(2-amino-3-morpholinoquinolin-6-yl)-3-methylphenyl)(2-(2-methoxyethyl)piperidin-1-yl)methanone]
501 to 1000 nM	< 100 nM	Cc1cccc(C(=O)N2[C@H](C)CCC[C@@H]2C)c1-c1ccc2nc(N)c(N3CCOCC3)cc2c1 [Example 84, (2-(2-amino-3-morpholinoquinolin-6-yl)-3-methylphenyl)((2S,6R)-2,6-dimethylpiperidin-1-yl)methanone]
